The values that follow come from patent US10654843B2, “LMP7 inhibitors” (PRINCIPIA BIOPHARMA INC., priority 2014, dated 2020).

Where two headings read alike, the source gives them in different places. Where only a bound is given, the exact number is not on record here.

In one assay the target is immunoproteasome (LMP7) (Homo sapiens, UniProt P20618+P28062). In words: Recovery of enzymatic activity upon dialysis. Format: biochemical. Conditions: FIG. 1, dialysis. An excerpt:
The dialysis assay was done to determine if a compound binds reversibly or irreversibly to immunoproteasome thereby resulting in reversible or irreversible inhibition of proteaseome activity. […] Partial or complete recovery of proteasome activity over extended periods of time during dialysis is indicative of slow off-rate kinetics due to formation of a reversible covalent bond. For rapidly reversible compounds complete recovery of proteosome activity upon dialysis is expected to be observed.
A solution containing immunoproteasome was incubated with a compound of the disclosure (test compound) or (S)-4-methyl-N—((S)-1-(((S)-4-methyl-1-((R)-2-methyloxiran-2-yl)-1-oxopentan-2-yl)amino)-1-oxo-3-phenylpropan-2-yl)-2-((S)-2-(2-morpholino-acetamido)-4-phenylbutanamido)-pentanamide (reference compound), an irreversible covalent inhibitor of the immunoproteosome which targets the catalytic threonine of the immunoproreasome subunits (see Kuhn, D. J., et al. 2007. Potent activity of carfilzomib, a novel, irreversible inhibitor of the ubiquitin-proteasome pathway, against preclinical models of multiple myeloma. Blood, 110(9), 3281-3290). […] Following dialysis, enzymatic activity was measured using the Caliper-based proteasome activity assay (Caliper Life Sciences, Hopkinton, Mass). […]

Assay [1] addresses T1, proteasome activity in HT-29 cells (Homo sapiens, UniProt P28074).
T1 construct: endogenous in cells; host or cells: HT-29
In words: Durability of binding in cells, wash-out assay (Proteasome-Glo), HT-29. Format: cell-based. As to conditions: 2 hours incubation, washout. As to the method: The durability of binding of proteasome inhibitors was assessed in cells using wash-out assays and the Proteasome-Glo™ Reagent kit. THP-1 cells, HT-29 cells, or PBMC were incubated with an 8-fold dilution series of inhibitor for 2 hours. Following 2 hours of incubation, cells were washed using 3 occasions of centrifugation followed by resuspension in culture medium. Following inhibitor washout, cells were returned to culture for either 30 minutes, 4 hours, or 18 hours. Cells were then transferred to white 384 plates, and 20 uL of Proteasome-Glo™ Reagent was added to each well for 10 minutes. Plates were then read on an Analyst HT plate reader using luminescence mode. The percent inhibition of activity was plotted as a function of log compound concentration. The IC50 was then calculated for each compound using Prism software from GraphPad.

Assay [2] deals with T2, proteasome activity in primary human peripheral blood mononuclear cells (PBMC) (Homo sapiens, UniProt P28062).
T2 construct: endogenous in cells; host or cells: primary human PBMC
Description: Inhibition of proteasome activity in cells (Proteasome-Glo), PBMC. As to conditions: 2 hr incubation, Suc-LLVY-aminoluciferin. The format is cell-based. As to the method:
(§1) The cell-based effects of the compound of the present disclosure on immunoproteasome were determined by measuring inhibition of proteasome activity in cells using the Proteasome-Glo™ Cell-Based Reagent (Promega, Madison Wis). The Proteasome-Glo™ assay contains a specific luminogenic proteasome substrate in a buffer optimized for cell permeabilization, proteasome activity, and luciferase activity. For the chymotrypsin-like activity, the peptide substrate is Suc-LLVY-aminoluciferin (Succinyl-leucine-leucine-valine-tyrosine-aminoluciferin). Cleavage of the substrate by proteasome results in luminescent signal which is proportional to the proteasome activity. The cell line THP-1 (a monocytic leukemia cell line enriched in immunoproteasome), the cell line HT-29 (a colorectal adenocarcinoma cell line enriched in constitutive proteasome), and primary human peripheral blood mononuclear cells (PBMC) were used to assess proteasome activity. Cells were seeded in a 96-well plate at 10,000 cells per well in RPMI 1640 high glucose medium with 10% fetal bovine serum (FBS). Compound dilutions were added to cells starting at a concentration of 5 uM and decreasing in tripling dilutions. The final DMSO concentration was 1%. The concentration range was adjusted as needed for compounds of different potencies. The cells treated with compounds were incubated for 2 hr at 37° C. in 5% CO2. At the end of the 2 hour incubation period, cells were transferred to white 384 well assay plates. 20 uL of Proteasome-Glo™ Reagent was added to each well and incubated for 10 minutes at room temperature. The plate was read in the Analyst HT instrument (Molecular Devices, Sunnyvale, Calif.) using luminescence mode. The percent inhibition of activity was plotted as a function of log compound concentration. The IC50 was then calculated for each compound using Prism software from GraphPad Software Inc. (San Diego, Calif).

Assay [3] has as its target constitutive proteasome (B5c) (Homo sapiens, UniProt P20618+P28074). Description: Caliper-based proteasome assay, constitutive proteasome chymotrypsin-like activity. The format is biochemical. Conditions: human recombinant constitutive proteasome 0.3 nM, FAM-labeled peptide substrate 1 μM, room temperature 3 h. The method, then: (§2) A Caliper-based proteasome assay (Caliper Life Sciences, Hopkinton, Mass.) was used to measure inhibition of the chymotrypsin-like activity of both immunoproteasome (LMP7/B5i) and the constitutive proteasome (B5c) for a compound of Formula (I). Serial dilutions of test compounds were incubated with either human recombinant immunoproteasome or constitutive proteasome (0.3 nM enzyme) and a carboxyfluorescein (FAM)-labeled peptide substrate FAM-TYETFKSIMKKSPF-NH2 (1 μM) at room temperature for 3 h. The reaction buffer was 20 mM Hepes pH 7.4, 0.01% bovine serum albumin, 0.015% SDS, 0.5 mM EDTA, 1% DMSO. The reaction was then terminated with a buffer containing the known proteasome inhibitor carfilzomib at a concentration of 5 uM. The peptide cleavage reaction product was quantified on a Caliper LabChip 3000. Percent inhibition was calculated for each compound dilution and the concentration that produced 50% inhibition was calculated. This value is presented as the IC50.

Assay [4] addresses immunoproteasome (LMP7/B5i) (Homo sapiens, UniProt P20618+P28062). Description: Caliper-based proteasome assay, immunoproteasome chymotrypsin-like activity. The format is biochemical. As to conditions: human recombinant immunoproteasome 0.3 nM, FAM-labeled peptide substrate 1 μM, room temperature 3 h. As to the method: as §2
The target in assay [5] is T3, proteasome activity in HT-29 cells (enriched in constitutive proteasome) (Homo sapiens, UniProt P28074).
T3 construct: endogenous in cells; host or cells: HT-29
In words: Inhibition of proteasome activity in cells (Proteasome-Glo), HT-29. The format is cell-based. Conditions: 2 hr incubation, Suc-LLVY-aminoluciferin, read-out: HT29 IC50. The method, then:
as §1

For assay [6], the system named is multiple myeloma cell lines and primary patient tumor cells. As to conditions: including those resistant to conventional and novel prior therapies; cited from earlier work.
In assay [7] the test system is murine collagen-induced arthritis. As to conditions: including inflammation and bone erosion; cited from earlier work.
Assay [8] concerns proinflammatory cytokines (IL-6, TNF-α, IL-23). As to conditions: cited from earlier work.
In assay [9] the test system is Hashimoto's thyroiditis model. As to conditions: autoantibody-driven model; cited from earlier work.
The test system of assay [10] is human Th1/17 differentiation. As to conditions: cited from earlier work.
Assay [11] relates to murine DSS-induced colitis model. Conditions: cited from earlier work.
The subject of assay [12] is mouse Th1/17 differentiation. As to conditions: cited from earlier work.
Assay [13] has as its system B cell effector functions. As to conditions: cited from earlier work.
The subject of another assay is MRL/lpr lupus model. Conditions: cited from earlier work.

The term IC50 denotes the midpoint of a concentration-inhibition curve. Turning to `Cc1ccc(CNC(=O)[C@H](COc2cccc(C=C(C#N)C(=O)NC(C)(C)C)c2)NC(=O)[C@@H](NC(=O)c2cc(C)on2)[C@@H](C)O)cc1` [Example 3], the “binding to the immunoproteosome” value at immunoproteasome (LMP7) is given as “reversible”. The IC50 in assay [1] (30 minutes in culture, read-out: HT29 (30 min) IC50) was more than 5000 nM; in [1] (4 hours in culture, read-out: HT29 (4 h) IC50), more than 5000 nM; in [2], 3 nM; in assay [3], 1030 nM; in assay [4], 27 nM; in assay [5], 1370 nM.
As for `CC1=C(C(=O)N[C@H](C)C(=O)N[C@@H](Cc2c[nH]c3ccccc23)C(=O)N[C@@H](Cc2ccccc2)C(=O)[C@@]2(C)CO2)Cc2ccccc21` [PR-924], the “growth of multiple myeloma cell lines and primary patient tumor cells” value in [6] is reported as “inhibit growth”.
For the compound `COc1ccc(C[C@H](NC(=O)[C@H](C)NC(=O)CN2CCOCC2)C(=O)N[C@@H](Cc2ccccc2)C(=O)[C@@]2(C)CO2)cc1` [PR-957], the “disease activity in murine collagen-induced arthritis” value in [7] is “significantly inhibit disease activity”. Also, the “production of proinflammatory cytokines (IL-6, TNF-α, IL-23)” value in [8] is on record as “potently block”. The “efficacy in Hashimoto's thyroiditis model” value in assay [9] is given as “efficacious”. Also, in [10], the “human Th1/17 differentiation” value was “potently block”. Also, in assay [11], the “inflammation and tissue destruction” value was “reduced inflammation and tissue destruction”. In assay [12], the “mouse Th1/17 differentiation” value is reported as “potently block”. The “B cell effector functions” value in [13] is “potently block”. In the assay on MRL/lpr lupus model, the “anti-dsDNA IgG levels” value was “reduced”, the disease progression result is reported as “prevented disease progression” and the plasma cell numbers entry is on record as “reduced”.
